Test results taken from patent publication US20140350273A1, “PEDIATRIC USES OF CABAZITAXEL” (AVENTIS PHARMA S.A., priority 2012, published 2014).
Read-outs that look alike come from different tables or passages of the source.

Tested on: human Ewing's sarcoma DM101
Type: in vivo
Settings: for Tumor Volume Data (Day 11) Median / ΔT/ΔC %: day 11; for MTTE / T-C: volume endpoint 2000 mm^3; for tumor volume changes from baseline, Median +/− MAD: nude mice bearing DM101 Ewing's sarcoma
Experimental: The resultant solution contains 10 mg/mL of cabazitaxel. Stock solution of cabazitaxel was then diluted in 0.9% sodium chloride.
This efficacy may be quantified, for example, as changes in tumor volume for each treated (T) and control (C) group, which are calculated for each animal and each day by subtracting the tumor volume on the day of first treatment (staging day) from the tumor volume on the specified observation day. This allows calculating the tumor growth inhibition: ΔT/ΔC=(median delta T/median delta C)×100. Individual tumor volume changes from baseline are thereafter analyzed by a non-parametric two-way ANOVA-TYPE (with factors: group and repeated days) followed by a post-hoc contrasts analysis, with Bonferroni-Holm adjustment for multiplicity, comparing all treated groups to the control group. […] A probability less than 5% (p<0.05) was considered as significant.
Based on the National Cancer Institute (NCl) standards, a ΔT/ΔC≦40% is the minimal level required to declare activity.
This efficacy may also be quantified by the number of tumor regressions observed after therapy. Individual mice reporting a tumor volume ≦50% of the Day 0 measurement for two consecutive measurements over a seven day period were considered partial responders (PR). Individual mice lacking palpable tumors (<4×4 mm^2 for two consecutive measurements over a seven day period) were classified as complete responders (CR); a CR that persisted until study completion was considered a tumor-free survivor (TFS).
Efficacy could also be determined at study completion, using tumor growth delay (T-C) in days, which is calculated using the median time to endpoint (MTTE) value for each treatment (T) group versus control (C). A Log Rank multiple comparison test with Bonferroni-Holm adjustment for multiplicity was applied on individual TTE to compare the treated groups to the control group.
The animals subjected to the experiment are subcutaneously grafted unilaterally with approximately 30 mg of a tumor fragment from low passage pediatric patient-derived tumor xenografts. The animals are implanted with a human patient-derived pediatric tumor xenografted in immuno-compromised mice (Harlan; nu/nu). Several days post tumor implantation, mice are randomized according to their tumor burden to the different groups of treatments and controls. The agents are dosed intravenously at 5.8, 9.3, 15 or 24.2 mg/kg every 4 days for a total of 3 doses (q4d×3) to mice bearing a tumor burden at start of therapy (day 0) ranged from 125 to 250 mm^3.
Beginning Day 0, animals were observed daily and weighed twice weekly using a digital scale; data including individual and mean gram weights (Mean We±SD), mean percent weight change versus Day 0 were recorded for each group. Animal deaths were recorded daily and designated as drug-related (D), technical (T), tumor related (B), or unknown (U) based on weight loss and gross observation; single agent or combination groups reporting a mean >20% for a period of 7 days and/or >10% mortality were considered above the maximum tolerated dose (MTD) for that treatment on the evaluated regimen.
The selected tumor model, DM101, was a low passage patient-derived tumor xenograft derived from an Ewing's sarcoma taken from the bone of a patient.
The following end points were used: • Toxicity was declared at dosages inducing ≧20% body weight loss or ≧10% drug death; • Antitumor efficacy was determined by calculating the ΔT/ΔC value in percent on day 11 post treatment initiation, according to the above mentioned formula; • Individual tumor volume changes from baseline were analyzed by a non-parametric two-way ANOVA-TYPE (with factors: group and repeated day from 4 to 14) followed by a post-hoc contrasts analysis, with Bonferroni-Holm adjustment for multiplicity, comparing all treated groups to the control group on day 11. […] The volume endpoint for T-C calculations was chosen to be 2000 mm^3.

Structure (SMILES): CO[C@H]1C(=O)[C@]2(C)[C@@H](OC)C[C@H]3OC[C@@]3(OC(C)=O)[C@H]2[C@H](OC(=O)c2ccccc2)[C@]2(O)C[C@H](OC(=O)[C@H](O)[C@@H](NC(=O)OC(C)(C)C)c3ccccc3)C(C)=C1C2(C)C [Cabazitaxel, 4α-acetoxy-2α-benzoyloxy-5β,20-epoxy-1β-hydroxy-7β,10β-dimethoxy-9-oxo-11-taxen-13α-yl (2R,3S)-3-tert-butoxycarbonyl-amino-2-hydroxy-3-phenylpropionate]
- #CR (5.8 mg/kg i.v./q4d × 3): 0/0/0
- #PR (5.8 mg/kg i.v./q4d × 3): 0/0/0
- #TFS (5.8 mg/kg i.v./q4d × 3): 0/0/0
- Drug Deaths Total (5.8 mg/kg i.v./q4d × 3): 0
- Tumor Volume Data (Day 11) Median (5.8 mg/kg i.v./q4d × 3): 204 mm^3
- ΔT/ΔC % (5.8 mg/kg i.v./q4d × 3): 8.9%
- MTTE (5.8 mg/kg i.v./q4d × 3): 34.8 days
- T-C (5.8 mg/kg i.v./q4d × 3): 17.9 days
- tumor volume changes from baseline, Median +/− MAD (5.8 mg/kg, DAY 4): 0 +/− 0 (n = 9)
- tumor volume changes from baseline, Median +/− MAD (5.8 mg/kg, DAY 7): 34 +/− 34
- tumor volume changes from baseline, Median +/− MAD (5.8 mg/kg, DAY 11): 73 +/− 73
- tumor volume changes from baseline, Median +/− MAD (5.8 mg/kg, DAY 14): 155 +/− 136
- tumor volume changes from baseline, Median +/− MAD (5.8 mg/kg, DAY 17): 306 +/− 152
- tumor volume changes from baseline, Median +/− MAD (5.8 mg/kg, DAY 20): 489 +/− 199
- tumor volume changes from baseline, Median +/− MAD (5.8 mg/kg, DAY 25): 696.5
- tumor volume changes from baseline, Median +/− MAD (5.8 mg/kg, DAY 28): 1097 +/− 117
- tumor volume changes from baseline, Median +/− MAD (5.8 mg/kg, DAY 32): 1396
- #CR (9.3 mg/kg i.v./q4d × 3): 1/1/1
- #PR (9.3 mg/kg i.v./q4d × 3): 1/1/1
- #TFS (9.3 mg/kg i.v./q4d × 3): 1/1/1
- Drug Deaths Total (9.3 mg/kg i.v./q4d × 3): 0
- Weight Nadir % (9.3 mg/kg i.v./q4d × 3): −2%
- Weight Nadir Day (9.3 mg/kg i.v./q4d × 3): 7
- Tumor Volume Data (Day 11) Median (9.3 mg/kg i.v./q4d × 3): 255 mm^3
- ΔT/ΔC % (9.3 mg/kg i.v./q4d × 3): 9.4%
- MTTE (9.3 mg/kg i.v./q4d × 3): 23.9 days
- T-C (9.3 mg/kg i.v./q4d × 3): 7 days
- tumor volume changes from baseline, Median +/− MAD (9.3 mg/kg, DAY 4): 0 +/− 33
- tumor volume changes from baseline, Median +/− MAD (9.3 mg/kg, DAY 7): 13 +/− 41
- tumor volume changes from baseline, Median +/− MAD (9.3 mg/kg, DAY 11): 77 +/− 118
- tumor volume changes from baseline, Median +/− MAD (9.3 mg/kg, DAY 14): 188 +/− 241
- tumor volume changes from baseline, Median +/− MAD (9.3 mg/kg, DAY 17): 498 +/− 485
- tumor volume changes from baseline, Median +/− MAD (9.3 mg/kg, DAY 20): 766 +/− 713
- tumor volume changes from baseline, Median +/− MAD (9.3 mg/kg, DAY 25): 1095
- tumor volume changes from baseline, Median +/− MAD (9.3 mg/kg, DAY 28): 182.5 +/− 248
- tumor volume changes from baseline, Median +/− MAD (9.3 mg/kg, DAY 32): 385 +/− 414
- #CR (15 mg/kg i.v./q4d × 3): 9
- #PR (15 mg/kg i.v./q4d × 3): 9
- #TFS (15 mg/kg i.v./q4d × 3): 7
- Drug Deaths Total (15 mg/kg i.v./q4d × 3): 0
- Weight Nadir % (15 mg/kg i.v./q4d × 3): −3%
- Weight Nadir Day (15 mg/kg i.v./q4d × 3): 7
- Tumor Volume Data (Day 11) Median (15 mg/kg i.v./q4d × 3): 0 mm^3
- ΔT/ΔC % (15 mg/kg i.v./q4d × 3): −16%
- MTTE (15 mg/kg i.v./q4d × 3): >61 days
- T-C (15 mg/kg i.v./q4d × 3): >44.1 days
- CR (15 mg/kg q4d×3 IV): 9/9
- TFS (15 mg/kg q4d×3 IV): 7/9
- tumor volume changes from baseline, Median +/− MAD (15 mg/kg, DAY 4): 0 +/− 0 (n = 9)
- tumor volume changes from baseline, Median +/− MAD (15 mg/kg, DAY 7): −113 +/− 32
- tumor volume changes from baseline, Median +/− MAD (15 mg/kg, DAY 11): −131 +/− 47
- tumor volume changes from baseline, Median +/− MAD (15 mg/kg, DAY 14): −131 +/− 47
- tumor volume changes from baseline, Median +/− MAD (15 mg/kg, DAY 17): −131 +/− 47
- tumor volume changes from baseline, Median +/− MAD (15 mg/kg, DAY 20): −131 +/− 47
- tumor volume changes from baseline, Median +/− MAD (15 mg/kg, DAY 25): −131 +/− 47
- tumor volume changes from baseline, Median +/− MAD (15 mg/kg, DAY 28): −131 +/− 47
- tumor volume changes from baseline, Median +/− MAD (15 mg/kg, DAY 32): −131 +/− 40
- #CR (24.2 mg/kg i.v./q4d × 3): 9
- #PR (24.2 mg/kg i.v./q4d × 3): 9
- #TFS (24.2 mg/kg i.v./q4d × 3): 8
- Drug Deaths Total (24.2 mg/kg i.v./q4d × 3): 0
- Weight Nadir % (24.2 mg/kg i.v./q4d × 3): −5%
- Weight Nadir Day (24.2 mg/kg i.v./q4d × 3): 11
- Tumor Volume Data (Day 11) Median (24.2 mg/kg i.v./q4d × 3): 0 mm^3
- ΔT/ΔC % (24.2 mg/kg i.v./q4d × 3): −18.3%
- MTTE (24.2 mg/kg i.v./q4d × 3): >61 days
- T-C (24.2 mg/kg i.v./q4d × 3): >44.1 days
- CR (24.2 mg/kg q4d×3 IV): 9/9
- TFS (24.2 mg/kg q4d×3 IV): 8/9
- tumor volume changes from baseline, Median +/− MAD (24.2 mg/kg, DAY 4): −19 +/− 19
- tumor volume changes from baseline, Median +/− MAD (24.2 mg/kg, DAY 7): −150 +/− 52
- tumor volume changes from baseline, Median +/− MAD (24.2 mg/kg, DAY 11): −150 +/− 38
- tumor volume changes from baseline, Median +/− MAD (24.2 mg/kg, DAY 14): −150 +/− 38
- tumor volume changes from baseline, Median +/− MAD (24.2 mg/kg, DAY 17): −150 +/− 38
- tumor volume changes from baseline, Median +/− MAD (24.2 mg/kg, DAY 20): −150 +/− 38
- tumor volume changes from baseline, Median +/− MAD (24.2 mg/kg, DAY 25): −150 +/− 38
- tumor volume changes from baseline, Median +/− MAD (24.2 mg/kg, DAY 28): −150 +/− 38
- tumor volume changes from baseline, Median +/− MAD (24.2 mg/kg, DAY 32): −150 +/− 38
- antitumor activity compared with docetaxel (conclusion of example 6, 15 or 24.2 mg/kg, same or equi-toxic dose): significantly more active than docetaxel
